What is called melting point is the temperature of the solid-liquid transition.

SMILES strings stand for the structures.

On to `CCn1c(C)c(I)c(=O)n(CC)c1=O`, for which the melting point is 159 to 162 °C.
`CC(=O)Nc1nc2ccc(S(=O)(=O)n3c(COC(C)(C)C(=O)O)cc4cc(C(F)(F)F)ccc43)cc2s1` returned a melting point of 144 to 146 °C.
As for `CCOC(=O)c1cn2c3c(c(F)c(F)c(F)c3c1=O)C(C(=O)OC(C)(C)C)(C(=O)OC(C)(C)C)CN2C`, the figure is 169 to 173 °C; as for `O=C(CCc1ccccc1)Nc1cc(C(=O)NCc2ccccc2)ccn1`, 177 to 179 °C; as for `Cn1ccc(-c2ccc(C(=O)N3Cc4cccnc4Nc4ccccc43)c(Cl)c2)n1`, 196 to 197 °C.
As for `N#CCc1ccc(NC(=O)CNc2ccccc2F)cc1`, the figure is 111 to 113 °C; as for `COC(=O)c1sccc1NS(=O)(=O)c1nc2nc(C3CC3)cc(C)n2n1`, 133 to 134 °C.
Consider `CC(=O)OCCN1C(=O)C(NC(=O)Nc2cccc(-c3nnn[nH]3)c2)N=C(C2CCCCC2)c2cccc(C)c21` (stereo not drawn), for which the melting point is 165 to 168 °C.
On to `CCc1nnc2c(O)nc3cc(Cl)ccc3n12`, for which the melting point was above 300 °C.
The molecule `NC(=O)CNC(=O)c1cccc(-c2cccc3cc(COc4cc(Cl)cc(Cl)c4)sc23)c1` showed a melting point of 164 to 165 °C.
In turn, `C=Cn1cccc(O)c1=S` returned a melting point of 84 °C.
Under `COc1cc2nc(N)nc(-c3ccc(Br)cc3CO)c2cc1OC` stands 222 to 223 °C; under `CCCCN1CC(c2ccccc2)=C(O)C1=O`, 137 to 139 °C; under `COC(=O)CCc1ccc(-n2cc(C)n(-c3ccc(C(=N)N)cc3)c2=O)cc1`, 95 to 100 °C.
As for `CCCCCCCNC(=O)Oc1ccc2c(c1)CCCN2C`, the figure is 60 °C; as for `O=C1c2ccccc2C(=O)N1CC(=O)N1c2ccc(Cl)cc2N(Cc2ccccc2)C(=O)[C@H]2CCC[C@H]21` (relative stereo), 241 to 243 °C.
`CS(=O)(=O)c1cc2c(c(C=O)c1O)CCC2`: the melting point is 152 to 153 °C.
As to `Cc1cc(C)c(N2CCCc3c2nn(C)c3Br)c(Cl)c1`, the melting point fell in the range of 106 to 107 °C.
Molecule `CCn1nc(-c2ccc3cc(O)ccc3c2)c2ccc(O)cc21` returned a melting point of 146 to 148 °C.
On to `CCOC(=O)c1cnn2c1c(OCC)nc1c(C)nn(C)c12`, for which the melting point is 116 to 118 °C.
In turn, `COc1ccc(N2CCN(c3ccc(-n4cnn(CC(F)(F)F)c4=O)cc3)CC2)cc1` returned a melting point of 208 °C.
With `CNC(=O)c1cccc(NC(=O)Cc2ccc([N+](=O)[O-])cc2)c1`, the melting point was in the range of 148 to 151 °C.
Molecule `CC(C)(C)[Si](C)(C)OC1CCN(S(=O)(=O)c2ccc(N3CCCCC3)cc2)C1=O` (stereo not drawn) came in with a melting point of 111 to 112 °C.
`O=C(O)C1c2cc(Br)ccc2OCc2ncccc21` (stereo not drawn) displayed a melting point of 126 to 127 °C.
In turn, `CC(C)CCCC(C)C1CCC2C3CC=C4CC(OCCCCCCN5C(=O)c6ccccc6C5=O)CCC4(C)C3CCC12C` (stereo not drawn) returned a melting point of 80 °C.
Turning to `COc1cccc(NC(=O)NCc2nnc(C)n2-c2sc(C(=O)O)cc2C(=O)c2ccccc2Cl)c1`, the melting point lay within 206 to 208 °C.
Under `COc1ccc(N2CCN(c3c(C)c(C)c4c(c3C)C(c3ccc(C)cn3)C(C)(C)O4)CC2)cc1` (stereo not drawn) stands 186 to 187 °C; under `O=c1ccc(-c2cccc(Br)c2)nn1CN1CCOCC1`, 110 to 111 °C; under `O=[N+]([O-])c1ccccc1-c1ccc(CBr)cc1`, 109 to 110 °C.
For the molecule `CCCCCCCN(CCC(C)(C)CCSc1nc(-c2ccccc2)c(-c2ccccc2)[nH]1)C(=O)Nc1ccc(F)cc1F`, the melting point was 138 to 139 °C.
Consider `CN1CCN(NC(=O)Nc2cccc3c2C(=O)c2c-3n[nH]c2-c2ccc(N3CCNCC3)cc2)CC1`, for which the melting point is 254 °C.
The molecule `CNC(=S)NC1=NN(c2ccc(Cl)cc2)CC1` returned a melting point of 237 °C.
Molecule `CCOC(=O)c1c2ccc(CC(=O)NOCC(=O)N3CCCCC3)ccc-2c(C(=O)OCC)c1N` showed a melting point of 153 to 155 °C.
In turn, `O=c1[nH]c2[nH]c3ccc(Cl)cc3c2c2c(F)cccc12` gave a melting point above 300 °C.
As for `CCOC(=O)C(=O)CC(=O)c1cn(Cc2c(F)cccc2F)c2ccccc2c1=O`, the melting point lay within 172 to 173 °C.
Under `CCCCCCOC(=O)Oc1ccc(-c2ccc(C#N)cc2)cc1` stands 87.1 to 87.5 °C.
With `COC(=O)C=Cc1ccc(C(=O)Nc2ccncc2)cc1`, the melting point was 209 to 211 °C.
`CCCCC(=O)N(Cc1ccc(-c2ccccc2S(=O)(=O)N=CN(C)C)cc1)C(C#N)C(=O)OCC` (stereo not drawn): the melting point was 130 to 132 °C.
Take `CC(O)=C(C#N)C(=O)Nc1ccc(C(F)(F)F)cc1`: the melting point is 230 to 233 °C.
In turn, `Cc1nc(N)c2ncn(N(C)C)c2c1C` came in with a melting point of 205 to 207 °C.
Consider `CCOC(=O)n1nc(-c2cccc(OC)c2)nc1-c1ccccc1CC`, for which the melting point lay in the range of 80 to 82 °C.
As to `CON=C(c1ccc2c(c1)sc(=O)n2CCOc1ccc(CC(OCC(F)(F)F)C(=O)O)cc1)C1CC1` (stereo not drawn), the melting point was 33 to 34 °C.
As for `COc1cc2c(c3c1OC(C)(C)C3)C(c1ccccc1-c1ccncc1)=NC(C)(C)C2`, the figure is 187 to 189 °C; as for `CCOC(=O)c1ccc(OCc2ccccc2)c(OC)c1`, 72 to 74 °C.
Turning to `O=C(O)c1c[nH]c2c(OCC3CN(Cc4ccccc4)CCN3Cc3ccccc3)c(F)c(F)cc2c1=O` (stereo not drawn), the melting point was 158 to 159 °C.
Take `CCn1nc(-c2ccccc2)c(C(C)=O)c(Nc2cccc(F)c2)c1=O`: the melting point fell in the range of 176 to 178 °C.
The molecule `CC(Br)CCCCN1C(=O)c2ccccc2C1=O` (stereo not drawn) yielded a melting point of 48 to 51 °C.
For `CCCc1c(OCc2cccn3c(=O)c(CCC(=O)O)cnc23)ccc(C(C)=O)c1O`, the melting point lay within 210 to 214 °C.
`N#Cc1ccc(-c2c[nH]nc2C(F)(F)F)cc1SCC1CCC1` yielded a melting point of 102 to 103 °C.
Under `CC(=O)c1ccc2c(c1)S(=O)(=O)c1cc(C(C)=O)ccc1O2` stands 219 to 220 °C; under `Oc1cccc(C=C2c3ccccc3Cc3ccccc32)c1`, 196 °C.
As for `COc1ccc(Cn2cc([N+](=O)[O-])c(C(N)=O)n2)cc1`, the figure is 192 to 193 °C; as for `CC(=O)OCC1OC(n2c3ncccc3c3c4c(c5c6ccccc6[nH]c5c32)C(=O)N(C)C4=O)C(OC(C)=O)C(OC(C)=O)C1OC(C)=O` (stereo not drawn), 302 to 304 °C; as for `CC(=O)Nc1nc2c(s1)-c1nc(N3CCCC(CNC(=O)OC(C)(C)C)C3)ncc1CC2` (stereo not drawn), 250 to 255 °C.
Under `CC(=O)Nc1ccnn1-c1c(F)cc(C(F)(F)F)cc1Cl` stands 144 to 146 °C; under `NC(=O)C1CCc2[nH]c3ccc(OC(F)(F)F)cc3c2C1` (stereo not drawn), 177 to 178 °C.
Molecule `CCOC(=O)CC(CC(=O)Nc1ccc(Cl)c(C=C(Cl)C(=O)OCC)c1)C(F)(F)F` (stereo not drawn) returned a melting point of 115 to 117 °C.
Molecule `O=c1[nH]c(-c2c[nH]c3ccccc23)nc2ccc(N3CCOCC3)cc12` yielded a melting point above 300 °C.
Molecule `CCCCCCCCOc1ccc2c(c1)C(=O)c1cc3ccccc3cc1C2=O` gave a melting point of 127 to 129 °C.
Molecule `CC(SC1COC(c2ccc3cc(C(=O)Nc4ccc(C#N)cc4)ccc3c2)OC1)C(O)(Cn1cncn1)c1ccc(F)cc1F` (stereo not drawn) gave a melting point of 114 °C.
`CCCCCCCCCCCCCCCCCCNC(=O)OCC(CNS(=O)(=O)CCCI)OC(=O)NC` (stereo not drawn) came in with a melting point of 97 to 99 °C.
As for `O=C(c1ccc2ccccc2c1)N1CC[C@H](NCc2ccnc3ccccc23)C[C@H]1Cc1ccccc1` (relative stereo), the figure is 111 to 112 °C.
The molecule `COc1ccc2c(c1)c(Cc1nc(-c3cccc([N+](=O)[O-])c3)cs1)c(C)n2C(=O)c1ccc(Cl)cc1` showed a melting point of 162 to 164 °C.
In the case of `CCc1c(OC)nc(OC)nc1C(C#N)c1cc(Cl)cc(Cl)c1` (stereo not drawn), the melting point lay in the range of 121 to 122 °C.
Under `CN1C(=O)C(C(=O)Nc2ccc(C(F)(F)F)cc2)S(=O)(=O)c2cc(F)ccc21` (stereo not drawn) stands 146 to 148 °C.
As for `COC(=O)c1cc(C(=O)OC)cc(P(=O)(c2ccccc2)c2ccccc2)c1`, the melting point is 170 to 171 °C.
As for `CCOC(=O)C1=C(C(F)(F)F)Nc2n[nH]cc2C1c1ccc(OC)cc1` (stereo not drawn), the figure is 159 to 161 °C; as for `CC1CCC(C(=O)Nc2ccc(-c3ncc(-c4ccc(NC(=O)C5CCCCC5C)cc4)[nH]3)cc2)CC1` (stereo not drawn), 218 to 220 °C.
The molecule `O=C1c2cc3nnn(CCC4=CCCCC4)c(=O)c3cc2OC2CCCN12` (stereo not drawn) came in with a melting point of 124 °C.
As to `N#Cc1c(O)nsc1S(=O)(=O)c1ccccc1`, the melting point fell in the range of 163 to 164 °C.
Consider `COc1cc(Nc2c(C#N)cnc3cc(/C=C/CCN4CCN(C)CC4)c(OC)cc23)c(Cl)cc1Cl`, for which the melting point was in the range of 142 to 143 °C.
In turn, `CN(c1cccc2cc(C3=NCC(C)(CCO)S3)[nH]c12)S(=O)(=O)c1cccs1` (stereo not drawn) yielded a melting point of 149 to 150 °C.
Take `O=c1nc(-c2ccc(Sc3ccc(Cl)cc3)nc2)sc2ccccc12`: the melting point was 222 °C.
For `C[C@@H](c1ccccc1)N1C[C@@H](C(N)=O)CC1=O`, the melting point fell in the range of 149 to 150 °C.
As for `CC(=O)NS(=O)(=O)c1cc(C(=O)O)cc([N+](=O)[O-])c1Oc1ccccc1`, the figure is 270 to 271 °C.
`O=C(Nc1cc(Cl)cc(Cl)c1)C(Cl)Cl`: the melting point is 133 to 135 °C.
Molecule `COc1ccc(C2=NN(Cc3ccc(NC(=O)c4cccnc4)cc3)C(=O)CC2)cc1OC` registered a melting point of 184 °C.
Consider `COC(=O)c1cccc(-c2cc(CCNC(=O)C3CCC3)c3cc(OC)ccc3c2)c1`, for which the melting point fell in the range of 128 to 130 °C.
Under `CN(C)c1ccc(N=Nc2ccccc2C(=O)NCCNC(=O)OC(C)(C)C)cc1` stands 131 to 134 °C.
`CC(C)(C)c1nc(C(=O)c2cccs2)nc(C(C)(C)C)c1O` had a melting point of 158 to 159 °C.
Turning to `Cc1cc(-n2cc(I)nc2C)ccc1[N+](=O)[O-]`, the melting point is 146 to 148 °C.
As for `CCOC(=O)C1CCN(CC2(C)Cc3c(C)c(N)c(C)c(C)c3O2)CC1` (stereo not drawn), the figure is 74 to 76 °C; as for `CC(=O)N1CCN(CC(C)NC(=O)c2ccc3c(c2)c(-c2ccccc2)nn3C)CC1` (stereo not drawn), 98.8 to 100 °C.

Values taken from a melting point compilation (Tetko et al.; mined from patent text by program, amines drawn as free bases though some values may be those of a salt).
